This assay deals with HIV protease (Human immunodeficiency virus type 1 group M subtype B, UniProt P04585). Nature of the assay: Test for inhibition of the HIV protease. It counts as biochemical. Particulars: carried out as described in EP 0 428 849 A2, read-out: IC50 (concentration at which the activity of the enzyme is halved). As to the method:
24) Test for inhibition of the HIV protease
The test for inhibition of the HIV protease was carried out as described in EP 0 428 849 A2. The following IC50 values indicate the concentration at which the activity of the enzyme is halved;

For `O=C1N(Cc2ccc3ccccc3c2)[C@@H](Cc2ccccc2)P(=O)(O)[C@H](Cc2ccccc2)N1Cc1ccc2ccccc2c1` (relative stereo) [Example 19, 2,6-Dibenzyl-3,5-(2-naphthylmethyl)-1-hydroxy-3,5-diaza-4-oxophosphorinane-1-oxide (racemate composed of [2S,6S] and [2R,6R])], the IC50 was 0.32 µM.
`O=C1N(Cc2ccc(CO)cc2)[C@@H](Cc2ccccc2)P(=O)(O)[C@H](Cc2ccccc2)N1Cc1ccc(CO)cc1` (relative stereo) [Example 23, ([2R],[6S])-Dibenzyl-3,5-(4-hydroxymethylbenzyl)-1-hydroxy-3,5-diaza-4-oxophosphorinane-1-oxide (racemate composed of [2S,6S] and [2R,6R])]: the IC50 was found to be 0.24 µM.
Take `O=C1N(Cc2ccccc2)[C@@H](Cc2ccccc2)P(=O)(O)[C@@H](Cc2ccccc2)N1Cc1ccccc1` [Example 10, ([2R],3,5,[6S])-Tetrabenzyl-1-hydroxy-3,5-diaza-4-oxophosphorinone-1-oxide]: the IC50 was 50 µM.
Consider `O=C1N(Cc2ccc(CO)cc2)[C@@H](Cc2ccccc2)P(=O)(O)[C@@H](Cc2ccccc2)N1Cc1ccc(CO)cc1` [Example 12, ([2R],[6S])-Dibenzyl-3,5-(4-hydroxymethylbenzyl)-1-hydroxy-3,5-diaza-4-oxophosphorinone-1-oxide], for which the IC50 was 4.8 µM.
As for `O=C1N(Cc2ccc(CBr)cc2)[C@@H](Cc2ccccc2)P(=O)(O)[C@@H](Cc2ccccc2)N1Cc1ccc(CBr)cc1` [Example 13, ([2R],[6S])-Dibenzyl-3,5-(4-bromomethylbenzyl)-1-hydroxy-3,5-diaza-4-oxophosphorinone-1-oxide], the figure is 18 µM.

The values are drawn from patent US5707979A, “Phosphinic acid derivatives, their preparation and their use” (Hoechst Aktiengesellschaft, priority 1994, dated 1998).
